Data from US3954985A, “Method for inhibiting bacterial growth with certain selected 3-chloro-tetrahydro-1,3-oxazines or oxazolidines” (INTERx Research Corporation, priority 1975, dated 1976).
“And” between values parts separate entries of the source, which are not always exact repeats. Identical values can stand only once.

Columns and labels:
Staph. aureus ATCC 6538 = experiment: Bactericidal endpoint (time for complete sterilization), ATCC 6538; format: cell-based
Description: (§1) The procedure employed to determine the antibacterial activity of 3-chloro-2,2,4,4-tetramethyl-tetrahydro1,3-oxazolidine and 3-chloro-2,2-[spiro-1'-methyl-4'-piperidinyl]-4,4-dimethyl-1,3-oxazolidinewas based primarily on a modification of the serial dilution method of analysis. However, instead of determining the minimum inhibitory concentration parameters for the compound investigated, applicants alternatively chose to determine the bactericidal endpoint for a given concentration of the compound investigated. Consequently, applicants' studies were established to determine the time required for complete sterilization of the micro-organism tested, when exposed to a given concentration of the compound investigated.
(§2) A stock solution of each compound identified above was prepared using an appropriate buffered solution.
(§3) For screening in the absence of a denaturing agent (e.g., horse serum) an equal volume of distilled water and the resulting solution was subjected to the screen.
(§4) For screening in the presence of a denaturing agent, a volume of the stock solution was diluted using an equal volume of 10% horse serum. When necessary, the final solution was adjusted to the desired pH using 1N HCl and the solution was permitted to stand at room temperature for thirty minutes prior to the screening procedure.
(§5) To 5 ml of the stock solution being evaluated, there was added 0.2 ml of an overnight broth culture containing the particular micro-organism being investigated (see above). At time intervals of 0.5, 1, 2, 3, 4, 5, . . . minutes, a loop of this suspension was subcultured into 5 ml of a sterile nutrient broth. All the samples were then incubated at 37°C for seven days with daily observation for evidence of bacterial growth. The time interval reported is for that sample in which no bacterial growth was observed after the incubation period.

[1] = tested on: Staph. epidermidis ATCC 12228; experiment: Bactericidal endpoint (time for complete sterilization), ATCC 12228; format: cell-based
Description: as §1, §2, §3, §4, §5

6501 = experiment: Bactericidal endpoint (time for complete sterilization), 6501; format: cell-based
Description: as §1, §2, §3, §4, §5

E. coli ATCC 10536 = experiment: Bactericidal endpoint (time for complete sterilization), ATCC 10536; format: cell-based
Description: as §1, §2, §3, §4, §5

[2] = tested on: Pseud. aeruginosa ATCC 9027; experiment: Bactericidal endpoint (time for complete sterilization), ATCC 9027; format: cell-based
Description: as §1, §2, §3, §4, §5

[3] = tested on: Bord. bronchiseptica ATCC 4617; experiment: Bactericidal endpoint (time for complete sterilization), ATCC 4617; format: cell-based
Description: as §1, §2, §3, §4, §5

[4] = tested on: Kleb. pneumoniae ATCC 10031; experiment: Bactericidal endpoint (time for complete sterilization), ATCC 10031; format: cell-based
Description: as §1, §2, §3, §4, §5

[5] = Stability in the neat state at 40°C (positive chlorine by thiosulfate titration); format: physicochemical
Description: ^a Weight of sample analyzed.
^b Volume of 10^^-2 N sodium thiosulfate required to titrate
the sample at time (T).
^c Percentage of positive chlorine in the sample analyzed.

[6] = 0.5 M NaH2PO4 pH 7.0, diluent not given, 19.13 × 10^-3 M (6026 ppm)
[7] = 0.5 M NaH2PO4 pH 710 (so in the source), H2O, 19.75 × 10^-3 M (6221 ppm)
[8] = 0.5 M NaOAc pH 4.6, H2O, 17.0 × 10^-3 (5355 ppm)
[9] = 0.5 M NaOAc pH 4.6, Serum, 17.0 × 10^-3 (5355 ppm)

Q: What does the source list for `CN1CCC2(CC1)OCC(C)(C)N2Cl`?
A: Antibacterial activity, time, 6538 (Staph. aureus ATCC 6538; [6]): > 10 min; Antibacterial activity, time, 6538 (Staph. aureus ATCC 6538; [7]): 4 min; Antibacterial activity, time, 6538 (Staph. aureus ATCC 6538; [8]): 1 min; Antibacterial activity, time, 6538 (Staph. aureus ATCC 6538; [9]): 6 min; Antibacterial activity, time, 12228 [1, 6]: > 10 min; Antibacterial activity, time, 12228 [1, 7]: 4 min; Antibacterial activity, time, 12228 [1, 8]: 0.5 min; Antibacterial activity, time, 12228 [1, 9]: 2 min; Antibacterial activity, time, 6501 6501; [6]: > 10 min; Antibacterial activity, time, 6501 6501; [7]: 1 min; Antibacterial activity, time, 6501 6501; [8]: 0.5 min; Antibacterial activity, time, 6501 6501; [9]: 1 min; Antibacterial activity, time, 10536 (E. coli ATCC 10536; [6]): 4 min; Antibacterial activity, time, 10536 (E. coli ATCC 10536; [7]): 1 min; Antibacterial activity, time, 10536 (E. coli ATCC 10536; [8]): 0.5 min; Antibacterial activity, time, 10536 (E. coli ATCC 10536; [9]): 0.5 min; Antibacterial activity, time, 9027 [2, 6]: > 10 min; Antibacterial activity, time, 9027 [2, 7]: 1 min; Antibacterial activity, time, 9027 [2, 8]: 0.5 min; Antibacterial activity, time, 9027 [2, 9]: 1 min; Antibacterial activity, time, 4617 [3, 6]: > 10 min; Antibacterial activity, time, 4617 [3, 7]: 1 min; Antibacterial activity, time, 4617 [3, 8]: 0.5 min; Antibacterial activity, time, 4617 [3, 9]: 1 min; Antibacterial activity, time, 10031 [4, 6]: > 10 min; Antibacterial activity, time, 10031 [4, 7]: 1 min; Antibacterial activity, time, 10031 [4, 8]: 0.5 min; Antibacterial activity, time, 10031 [4, 9]: 1 min; %Cl (percentage of positive chlorine in the sample analyzed) ([5]; 0 days): 10.6%; %Cl (percentage of positive chlorine in the sample analyzed) ([5]; 1 day): 10.2% and 10.3%; %Cl (percentage of positive chlorine in the sample analyzed) ([5]; 2 days): 10.3% and 9.8%; %Cl (percentage of positive chlorine in the sample analyzed) ([5]; 3 days): 9.8% and 10.0%; %Cl (percentage of positive chlorine in the sample analyzed) ([5]; 4 days): 9.4%; %Cl (percentage of positive chlorine in the sample analyzed) ([5]; 5 days): 9.7%; %Cl (percentage of positive chlorine in the sample analyzed) ([5]; 7 days): 9.3% and 9.7%; %Cl (percentage of positive chlorine in the sample analyzed) ([5]; 10 days): 9.8%; %Cl (percentage of positive chlorine in the sample analyzed) ([5]; 14 days): 8.8% and 9.0%; %Cl (percentage of positive chlorine in the sample analyzed) ([5]; 21 days): 9.4%; %Cl (percentage of positive chlorine in the sample analyzed) ([5]; 28 days): 9.4% and 9.1%; %Cl (percentage of positive chlorine in the sample analyzed) ([5]; 35 days): 8.9% and 9.0%; %Cl (percentage of positive chlorine in the sample analyzed) ([5]; 51 days): 8.0%
